The record followed here is patent US6855490B2, “Method for attaching biological molecules to a glass surface” (Medical Discovery Partners LLC, priority 1999, dated 2005).

Primed or numbered codes have the meaning given here. FITC′ = fluorescein group attached to the epsilon side chain of lysine

Assay [1] deals with 1D5 monoclonal antibody. The experiment in a line: Fluorescence polarization assay of synthetic ER peptides. The arrangement: species or system mouse. The settings on record: binding to 1D5 monoclonal antibody, FITC-labelled peptide. The method, then:
Large quantities of each of the selected phage are grown and nucleic acid extracted for sequence analysis. Based on the nucleotide sequence coding for the inserted ten-mer peptide, corresponding peptides are synthesized. Numerous commercial vendors provide peptide synthesis capabilities. The binding affinity of each of the selected peptide sequences for their antibodies is determined using Scatchard analysis. The percentage of antibodies binding to the peptide can be ascertained using fluorescence polarization analysis, provided that the peptide is fluorescently labeled. The specificity of binding for each peptide antigen mimic is tested using irrelevant, isotype-matched antibodies.
(§1) Three synthetic peptides (designated as ER peptide 3, ER peptide 4, and ER peptide 6), that are representative of above consensus phage sequence, were synthesized (by SynPep Labs, Dublin, Calif. and Bachem Labs, King of Prussia, Pa.) and tested for specificity/affinity to 1D5 monoclonal antibody.
Background: Fluorescence polarisation rises when a labelled molecule tumbles more slowly, as on binding a larger partner.

Assay [2] has as its system 1D5 monoclonal antibody. The experiment in a line: Peptide ELISA of synthetic ER peptides. It counts as binding, mouse. To be noted: compared among ER peptides 3, 4 and 6.
Description: as §1
On the technique in general: ELISA stands for enzyme-linked immunosorbent assay.

As to “Ac-DFQCPYVECVVNAPGGK(FITC)GK-CONH2 (Ac-DFQCPYVECVVNAPGGK(FITC′)GK-NH2; cysteine pairing not given here) [ER peptide 3]”, the Kd (commonly the free concentration of one partner at which half of the binding sites on the other are occupied at equilibrium, for simple one-to-one binding) in assay [1] is around 1 nM. For the same substance, the “Peptide ELISA signal” value in assay [2] was “highest signal”.
